Test results from patent US20120083647A1, “METHOD FOR CHANGING AN INDIVIDUAL'S STATE OF CONSCIOUSNESS” (priority 2010, published 2012).

How the values were obtained:
[1] = after LOC, continuous infusion of the drug
Experimental: After LOC was reached and neuroimaging completed at that level of anesthesia, those in the propofol infusion group had the infusion terminated and the subjects were allowed to emerge from anesthesia. During the emergence process, consciousness was tested at 1 min intervals until ROC was detected. ROC was defined as eye opening in response to the command to do so. […] PET measurements were thus obtained during the four conditions: baseline, sedation, LOC and ROC for 17 subjects.

[2] = healthy male volunteers, iv TCI; for subjects who lost consciousness at 75% of LOC: target 75% of individually determined LOC concentration; for subjects who lost consciousness at 100% of LOC: target 100% of individually determined LOC concentration; for subjects who lost consciousness at 125% of LOC: target 125% of individually determined LOC concentration
Experimental: Twenty volunteers (healthy, right-handed, 19 to 28 years old males) participated in this open, non-randomized study approved by the local ethics committee and the National Agency for Medicines. All subjects gave written informed consent. […] Subjects refrained from using alcohol or any medication for 48 hours before the study and they fasted overnight. No pre-medication was administered prior to study drug administration.
Subjects participated in two separate anesthesia sessions approximately one month apart. The first session was used to establish each subject's individual dose-response characteristics. The second session was used for neuroimaging. Subjects were anesthetized in a similar fashion on the two separate occasions. For each session, the subjects were prepared for the administration of a general anesthetic. In the first session, the individual concentrations for LOC were determined. Subjects were divided into two groups to receive either dexmedetomidine (n=10) or propofol (n=10) intravenous anesthesia via computer-controlled infusion. Once assigned to a particular anesthetic agent, that subject then again received that anesthetic during the neuroimaging session. Each infusion was started at a low rate and was then increased in a step-wise manner at 10 min intervals until LOC was detected. Consciousness was tested at 5 min intervals by asking the subjects to open their eyes. LOC was defined as being unresponsive to this request.
Dexmedetomidine (Precedex 100 μg/ml, Orion, 02200 Espoo, Finland) was administered intravenously using a target controlled infusion (TCI) scheme aiming at escalating pseudo steady-state plasma concentrations every 10 min. A Harvard 22 syringe pump (Harvard Apparatus, South Natick, Mass.) connected to a portable computer running […] software (Steven L. Schafer, M.D., Columbia University Medical Center, 622 W 168th St, PH 5-505 New York, N.Y. 10032-3725, USA) and the pharmacokinetic parameters of Talke were used (P. Talke et al., Anesthesiology 99, 65 (2003)). In the first session, the infusion was started at a target (plasma) concentration of 1.0 ng/ml, followed first by a 0.5 ng/ml target concentration increase and then by subsequent 0.25 ng/ml increases thereafter (i.e. 1.0-1.5-1.75-2.0-2.25-etc. ng/ml) until LOC was achieved.
Propofol (Propofol Lipuro 10 mg/ml, B. Braun Melsungen AG, Pfieffewiesen, D-34212 Melsungen, Germany) was administrated with the same infusion system and scheme as dexmedetomidine, using the Marsh pharmacokinetic model (B. Marsh et al., Br J Anaesth 67, 412 (1991)). In the first session, the infusion was started at a target (plasma) concentration of 1.0 μg/ml, followed first by a 0.5 μg/ml target concentration increase and then subsequent 0.25 μg/ml increases thereafter (i.e. 1.0-1.5-1.75-2.0-2.25-etc. μg/ml) until LOC was achieved.
In the second (neuroimaging) session of the study, the computer controlled drug infusion was repeated for each subject by aiming at their individually determined drug concentrations 50, 75 and 100% of the LOC concentration. Consciousness was tested similarly to the first session. If the LOC concentration defined in the first session of the study was not sufficient to produce LOC in the second session, the drug infusion was continued and an additional 25% target concentration increment was added to the rate. Concentrations were adjusted at 10 min intervals with simultaneous imaging at each level until LOC was detected.

Structure (SMILES) | restoration of consciousness by stimulation during drug infusion [1] | subjects who lost consciousness at 50% of the previously measured LOC concentration value ([2]; target 50% of individually determined LOC concentration) | subjects who lost consciousness at 75% of LOC [2] | subjects who lost consciousness at 100% of LOC [2] | subjects who lost consciousness at 125% of LOC [2]
Cc1cccc([C@H](C)c2cnc[nH]2)c1C [dexmedetomidine, Dexmedetomidine] | gentle tactile stimulation and/or loud voice was sufficient to restore consciousness | 1 | 1 | 3 | 5
CC(C)c1cccc(C(C)C)c1O [propofol, Propofol] |  |  | 2 | 6 | 1
